Results as given in paper PMC8632500, “Identification of Conserved and Divergent Strigolactone Receptors in Sugarcane Reveals a Key Residue Crucial for Plant Branching Control” (Frontiers in Plant Science, 2021).
Substitutions are numbered along the chain they refer to.

Tests used:
Assay in all cases: yeast two-hybrid, hormone-induced D14-MAX2 interaction
Assay type in all cases: cell-based
OsD14ΔN (with SsMAX2) [1] = target: T1, OsD14ΔN (with SsMAX2) (Oryza sativa, UniProt Q10QA5); conditions: 5 uM rac-GR24 versus DMSO; 30 °C, 4 days; partner SsMAX2
T1 construct: gene D14; N-terminally truncated (printed OsD14ΔN53; R261/R312 offset implies 51 residues removed), GAL4-BD fusion, with Saccharum spontaneum MAX2 as GAL4-AD fusion, yeast AH109; with F-box protein MAX2 homolog (D3), Saccharum spontaneum
T1 sequence (Q10QA5 54-318): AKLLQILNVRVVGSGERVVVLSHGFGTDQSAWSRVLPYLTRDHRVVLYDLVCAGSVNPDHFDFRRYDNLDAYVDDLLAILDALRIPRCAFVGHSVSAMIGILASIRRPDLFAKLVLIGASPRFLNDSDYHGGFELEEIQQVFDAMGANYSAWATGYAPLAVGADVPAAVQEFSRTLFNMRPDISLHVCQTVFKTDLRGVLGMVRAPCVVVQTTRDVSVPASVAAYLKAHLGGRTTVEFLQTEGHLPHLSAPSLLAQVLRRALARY

AtD14 (with SsMAX2) [2] = target: T2, AtD14 (with SsMAX2) (Arabidopsis thaliana, UniProt Q9SQR3); conditions: 5 uM rac-GR24 versus DMSO; 30 °C, 4 days; partner SsMAX2
T2 construct: gene D14; GAL4-BD fusion, with Saccharum spontaneum MAX2 as GAL4-AD fusion, yeast AH109; with F-box protein MAX2 homolog (D3), Saccharum spontaneum
T2 sequence (Q9SQR3 1-267): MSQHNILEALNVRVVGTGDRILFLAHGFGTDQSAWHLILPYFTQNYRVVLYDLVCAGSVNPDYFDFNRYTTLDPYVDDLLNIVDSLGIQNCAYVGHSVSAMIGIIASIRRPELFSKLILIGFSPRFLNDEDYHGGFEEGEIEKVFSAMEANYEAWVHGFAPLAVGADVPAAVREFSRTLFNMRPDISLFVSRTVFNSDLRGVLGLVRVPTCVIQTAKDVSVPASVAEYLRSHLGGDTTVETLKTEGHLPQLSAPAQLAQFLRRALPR

OsD14ΔN (with SsMAX2) [3] = target: T3, OsD14ΔN (with SsMAX2) (Oryza sativa, UniProt Q10QA5, R312P); conditions: 5 uM rac-GR24 versus DMSO; 30 °C, 4 days; partner SsMAX2; R312P in full-length count
T3 construct: gene D14; N-terminally truncated (printed OsD14ΔN53; R261/R312 offset implies 51 residues removed), GAL4-BD fusion, with Saccharum spontaneum MAX2 as GAL4-AD fusion, yeast AH109; with F-box protein MAX2 homolog (D3), Saccharum spontaneum
T3 sequence (Q10QA5 54-318 R312P): T1 sequence (Q10QA5 54-318) with R259P

SsD14a (with SsMAX2) = target: T4, SsD14a (with SsMAX2) (Saccharum spontaneum, UniProt Z9T3V1O2D3); conditions: 5 uM rac-GR24 versus DMSO; 30 °C, 4 days; partner SsMAX2
T4 construct: full-length CDS as GAL4-BD fusion (pGBKT7), SsMAX2 as GAL4-AD fusion (pGADT7), yeast AH109; 7F5W is apo SsD14a lacking residues 1-49; with F-box protein MAX2 homolog (D3)
T4 sequence (Z9T3V1O2D3 1-316): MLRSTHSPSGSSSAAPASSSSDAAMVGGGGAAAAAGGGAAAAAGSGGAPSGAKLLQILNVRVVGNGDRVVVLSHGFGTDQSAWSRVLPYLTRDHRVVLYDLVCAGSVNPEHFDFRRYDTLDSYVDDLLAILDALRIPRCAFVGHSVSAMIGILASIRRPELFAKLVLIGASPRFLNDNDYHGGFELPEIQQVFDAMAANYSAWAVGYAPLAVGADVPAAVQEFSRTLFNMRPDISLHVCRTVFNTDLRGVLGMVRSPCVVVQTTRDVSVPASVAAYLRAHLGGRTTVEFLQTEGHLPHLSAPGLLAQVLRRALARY

AtD14 (with SsMAX2) [4] = target: T5, AtD14 (with SsMAX2) (Arabidopsis thaliana, UniProt Q9SQR3, R262P); conditions: 5 uM rac-GR24 versus DMSO; 30 °C, 4 days; partner SsMAX2
T5 construct: gene D14; GAL4-BD fusion, with Saccharum spontaneum MAX2 as GAL4-AD fusion, yeast AH109; with F-box protein MAX2 homolog (D3), Saccharum spontaneum
T5 sequence (Q9SQR3 1-267 R262P): T2 sequence (Q9SQR3 1-267) with R262P

SsD14b (with SsMAX2) = target: T6, SsD14b (with SsMAX2) (Saccharum spontaneum, UniProt Z9BCY6HYO0); conditions: 5 uM rac-GR24 versus DMSO; 30 °C, 4 days; partner SsMAX2
T6 construct: full-length CDS as GAL4-BD fusion (pGBKT7), SsMAX2 as GAL4-AD fusion (pGADT7), yeast AH109; with F-box protein MAX2 homolog (D3)
T6 sequence (Z9BCY6HYO0 1-310): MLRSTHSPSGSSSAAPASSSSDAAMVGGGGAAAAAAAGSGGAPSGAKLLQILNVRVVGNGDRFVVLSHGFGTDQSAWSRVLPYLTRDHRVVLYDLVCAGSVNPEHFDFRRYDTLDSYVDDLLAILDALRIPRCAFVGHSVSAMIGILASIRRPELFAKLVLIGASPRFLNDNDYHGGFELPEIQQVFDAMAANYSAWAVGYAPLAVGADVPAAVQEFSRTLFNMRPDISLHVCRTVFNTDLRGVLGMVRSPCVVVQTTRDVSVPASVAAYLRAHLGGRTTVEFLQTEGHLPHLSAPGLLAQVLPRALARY

CC1=CC(OC=C2C(=O)OC3c4ccccc4CC23)OC1=O (racemic) [rac-GR24]
yeast two-hybrid, hormone-induced D14-MAX2 interaction (OsD14ΔN (with SsMAX2) [1]): like wild-type proteins, still have strong hormone-dependent interactions with SsMAX2 | yeast two-hybrid, hormone-induced D14-MAX2 interaction (AtD14 (with SsMAX2) [2]): SsMAX2 interacted with AtD14 in an SL-dependent manner | yeast two-hybrid, hormone-induced D14-MAX2 interaction (OsD14ΔN (with SsMAX2) [3]): AtD14R262P and OsD14ΔNR261P, like wild-type proteins, still have strong hormone-dependent interactions with SsMAX2 | yeast two-hybrid, hormone-induced D14-MAX2 interaction (SsD14a (with SsMAX2)): SL induced both SsD14a and SsD14b to interact with SsMAX2 in yeast | yeast two-hybrid, hormone-induced D14-MAX2 interaction (AtD14 (with SsMAX2) [4]): AtD14R262P and OsD14ΔNR261P, like wild-type proteins, still have strong hormone-dependent interactions with SsMAX2 | yeast two-hybrid, hormone-induced D14-MAX2 interaction (SsD14b (with SsMAX2)): SL induced both SsD14a and SsD14b to interact with SsMAX2 in yeast
